Experimental data taken from patent US20230339937A1, “CONDENSED RING COMPOUNDS THAT INHIBIT H-PGDS” (SATO PHARMACEUTICAL CO., LTD., priority 2020, published 2023).

Target: T1, Recombinant human H-PGDS (Homo sapiens, UniProt O60760)
T1 construct: made in house; host or cells: E. coli
Assay: H-PGDS inhibitory activity (prostaglandin D2 production from prostaglandin H2, measured by LC-MS/MS)
Format: biochemical
Conditions: recombinant human H-PGDS 1.0 nM expressed in E. coli; prostaglandin H2 25 μM; preincubated 15 minutes on ice, reacted on ice for 1 minute; concentration that inhibits prostaglandin D2 production by 50%
How it was run: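 Recombinant human H-PGDS (E. coli-expressed, 1.0 nM final) preincubated with compound 15 min on ice in 20 mM Tris-HCl pH 8.0, 2 mM MgCl2, 2 mM GSH, 0.5 mg/mL γ-globulin. Reaction with 25 µM PGH2 run 1 min on ice, stopped with FeCl2/citric acid, PGD2 quantified by LC-MS/MS. Activity expressed as % of DMSO control after subtracting non-enzymatic PGD2.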

T1 sequence (O60760 whole entry): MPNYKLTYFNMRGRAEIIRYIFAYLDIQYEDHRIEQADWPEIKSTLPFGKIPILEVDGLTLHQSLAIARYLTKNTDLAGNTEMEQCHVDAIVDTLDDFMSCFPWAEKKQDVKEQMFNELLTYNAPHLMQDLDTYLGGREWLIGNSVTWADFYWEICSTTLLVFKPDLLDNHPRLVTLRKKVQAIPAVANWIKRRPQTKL

Row | Compound | IC50
1 | Cc1ccnc(N2CCC(NC(=O)c3ccc(-c4nccc5occc45)cc3)CC2)n1 [Example 155, 4-(furo[3,2-c]pyridin-4-yl)-N-[1-(4-methylpyrimidin-2-yl)piperidin-4-yl]benzamide] | 1.5 nM
2 | [2H]C([2H])([2H])O[C@H]1CC[C@H](NC(=O)c2ccc(-c3nccc4occc34)cc2)CC1 [Example 286, 4-(furo[3,2-c]pyridin-4-yl)-N-[trans-4-(methoxy-d3)cyclohexyl]benzamide] | 1 nM
3 | C[C@]1(O)CC[C@H](NC(=O)c2ccc(-c3nccc4occc34)c(F)c2)CC1 [Example 346, 3-fluoro-4-(furo[3,2-c]pyridin-4-yl)-N-(trans-4-hydroxy-4-methylcyclohexyl)benzamide] | 2 nM
4 | O=C(NC12CCC(O)(CC1)CC2)c1ccc(-c2nccc3occc23)cc1 [Example 260, 4-(furo[3,2-c]pyridin-4-yl)-N-(4-hydroxybicyclo[2.2.2]octan-1-yl)benzamide] | 1.9 nM
5 | Cc1cc(S(N)(=O)=O)ccc1NC(=O)c1ccc(-c2nccc3occc23)cc1 [Example 117, 4-(furo[3,2-c]pyridin-4-yl)-N-(2-methyl-4-sulfamoylphenyl) benzamide] | 12 nM
6 | O=C(N[C@H]1CC[C@H](CO)CC1)c1ccc(-c2nccc3[nH]ccc23)cc1 [Example 3, N-[trans-4-(hydroxymethyl)cyclohexyl]-4-(1H-pyrrolo[3,2-c]pyridin-4-yl)benzamide] | 0.63 nM
7 | CC(=O)Nc1cnc(N2CCC(NC(=O)c3ccc(-c4nccc5occc45)cc3)CC2)nc1 [Example 189, N-[1-(5-acetamidopyrimidin-2-yl)piperidin-4-yl]-4-(furo[3,2-c]pyridin-4-yl)benzamide] | 2.3 nM
8 | O=C(N[C@@H]1CCC[C@@H](O)C1)c1ccc(-c2nccc3occc23)cc1 (relative stereo) [Example 266, 4-(furo[3,2-c]pyridin-4-yl)-N-(trans-3-hydroxycyclohexyl)benzamide] | 3.8 nM
9 | CC(=O)N[C@H]1CC[C@H](NC(=O)c2ccc(-c3nccc4occc34)cc2)CC1 [Example 296, N-(trans-4-acetamidocyclohexyl)-4-(furo[3,2-c]pyridin-4-yl)benzamide] | 2.9 nM
10 | CC(C)n1nnnc1N1CCC(NC(=O)c2ccc(-c3nccc4occc34)cc2)CC1 [Example 242, 4-(furo[3,2-c]pyridin-4-yl)-N-[1-(1-isopropyl-1H-tetrazol-5-yl)piperidin-4-yl]benzamide] | 2 nM
11 | O=C(N[C@@H]1CC[C@@H](CO)OC1)c1ccc(-c2nccc3occc23)cc1 [Example 211, 4-(furo[3,2-c]pyridin-4-yl)-N-[(3R,6S)-6-(hydroxymethyl)tetrahydro-2 H-pyran-3-yl]benzamide] | 2.5 nM
12 | O=C(N[C@@H]1CN(c2ncc(CO)cn2)C[C@H]1F)c1ccc(-c2nccc3occc23)cc1 [Example 203, N-{(3R,4R)-4-fluoro-1-[5-(hydroxymethyl)pyrimidin-2-yl]pyrrolidin-3-yl}-4-(furo[3,2-c]pyridin-4-yl)benzamide] | 1.9 nM
13 | CC(C)(O)[C@H]1CC[C@H](NC(=O)c2ccc(-c3nc(Cl)cc4occc34)cc2)CC1 [Example 312, 4-(6-chlorofuro[3,2-c]pyridin-4-yl)-N-[trans-4-(2-hydroxypropan-2-yl)cyclohexyl]benzamide] | 1.8 nM
14 | O=C(NC1CCN(CC(F)(F)F)CC1)c1ccc(-c2nccc3occc23)cc1 [Example 180, 4-(furo[3,2-c]pyridin-4-yl)-N-[1-(2,2,2-trifluoroethyl)piperidin-4-yl]benzamide] | 0.96 nM
15 | O=C1CCC(NC(=O)c2ccc(-c3nccc4occc34)cc2)CC1 [Example 303, 4-(furo[3,2-c]pyridin-4-yl)-N-(4-oxocyclohexyl)benzamide] | 2.1 nM
16 | O=C(NCc1ccccc1)c1ccc(-c2nccc3[nH]ccc23)cc1 [Example 8, N-benzyl-4-(1H-pyrrolo[3,2-c]pyridin-4-yl)benzamide] | 1 nM
17 | CC(C)(O)[C@H]1CC[C@@H](NC(=O)c2ccc(-c3nccc4occc34)cc2)CC1 [Example 354, 4-(furo[3,2-c]pyridin-4-yl)-N-[cis-4-(2-hydroxypropan-2-yl)cyclohexyl]benzamide] | 35 nM
18 | Cc1cc2occc2c(-c2ccc(C(=O)N[C@H]3CC[C@H](NCC(F)F)CC3)cc2)n1 [Example 331, N-{trans-4-[(2,2-difluoroethyl)amino]cyclohexyl}-4-(6-methylfuro[3,2-c]pyridin-4-yl)benzamide] | 1.8 nM
19 | CC(C)(O)[C@H]1CC[C@H](NC(=O)c2ccc(-c3nc(F)cc4occc34)cc2)CC1 [Example 316, 4-(6-fluorofuro[3,2-c]pyridin-4-yl)-N-[trans-4-(2-hydroxypropan-2-yl)cyclohexyl]benzamide] | 1.5 nM
20 | C[C@]1(O)CC[C@@H](NC(=O)c2ccc(-c3nccc4occc34)cc2)CC1 [Example 283, 4-(furo[3,2-c]pyridin-4-yl)-N-(cis-4-hydroxy-4-methylcyclohexyl)benzamide] | 1.7 nM
21 | O=C(NC1CCCC1)c1ccc(-c2nccc3occc23)cc1 [Example 87, N-cyclopenthyl-4-(furo[3,2-c]pyridin-4-yl)benzamide] | 12 nM
22 | Cn1ccnc1N1CCC(NC(=O)c2ccc(-c3nccc4occc34)cc2)CC1 [Example 251, 4-(furo[3,2-c]pyridin-4-yl)-N-[1-(1-methyl-1H-imidazol-2-yl)piperidin-4-yl]benzamide] | 2 nM
23 | O=C(NC1CCN(c2ccncc2)CC1)c1ccc(-c2nccc3occc23)cc1 [Example 123, 4-(furo[3,2-c]pyridin-4-yl)-N-[1-(pyridin-4-yl)piperidin-4-yl]benzamide] | 1.8 nM
24 | CC(C)(O)CO[C@H]1CC[C@@H](NC(=O)c2ccc(-c3nccc4occc34)cc2)CC1 [Example 348, 4-(furo[3,2-c]pyridin-4-yl)-N-[cis-4-(2-hydroxy-2-methylpropoxy)cyclohexyl]benzamide] | 1.7 nM
25 | O=C(NCc1cccc(Cl)c1)c1ccc(-c2nccc3occc23)cc1 [Example 69, N-(3-chlorobenzyl)-4-(furo[3,2-c]pyridin-4-yl)benzamide] | 6 nM

More lines, now with the values ahead:

Row | IC50 | Compound
26 | 2.3 nM | O=C(N[C@H]1CC[C@H](O)CC1)c1ccc(-c2nccc3occc23)c(F)c1 [Example 325, 3-fluoro-4-(furo[3,2-c]pyridin-4-yl)-N-(trans-4-hydroxycyclohexyl)benzamide]
27 | 14 nM | O=C(N[C@@H]1CN(c2ncc(CO)cn2)C[C@@H]1O)c1ccc(-c2nccc3occc23)cc1 [Example 208, 4-(furo[3,2-c]pyridin-4-yl)-N-((3R,4S)-4-hydroxy-1-[5-(hydroxymethyl)pyrimidin-2-yl]pyrrolidin-3-yl)benzamide]
28 | 1.7 nM | Cc1ccnc(N2CCC(NC(=O)c3ccc(-c4nccc5occc45)cc3)CC2)c1 [Example 150, 4-(furo[3,2-c]pyridin-4-yl)-N-[1-(4-methylpyridin-2-yl)piperidin-4-yl]benzamide]
29 | 11 nM | O=C(NCC1CCOCC1)c1ccc(-c2nccc3occc23)cc1 [Example 82, 4-(furo[3,2-c]pyridin-4-yl)-N-[(tetrahydro-2H-pyran-4-yl)methyl] benzamide]
30 | 0.65 nM | O=C(NCCCO)c1ccc(-c2nccc3[nH]ccc23)cc1 [Example 30, N-(3-hydroxypropyl)-4-(1H-pyrrolo[3,2-c]pyridin-4-yl)benzamide]
31 | 3 nM | O=C(NC1CCN(c2ncc(F)cn2)CC1)c1ccc(-c2nccc3occc23)cc1 [Example 157, N-[1-(5-fluoropyrimidin-2-yl)piperidin-4-yl]-4-(furo[3,2-c]pyridin-4-yl)benzamide]
32 | 32 nM | O=C(NCc1ccccn1)c1ccc(-c2nccc3occc23)cc1 [Example 93, 4-(furo[3,2-c]pyridin-4-yl)-N-(pyridin-2-ylmethyl) benzamide]
33 | 1.3 nM | Cc1cc(CNC(=O)c2ccc(-c3nccc4[nH]ccc34)cc2)nn1C [Example 38, N-[(1,5-dimethyl-1H-pyrazol-3-yl)methyl]-4-(1H-pyrrolo[3,2-c]pyridin-4-yl)benzamide]
34 | 1.5 nM | O=C(NC12CCC(O)(CC1)C2)c1ccc(-c2nccc3occc23)cc1 [Example 349, 4-(furo[3,2-c]pyridin-4-yl)-N-(4-hydroxybicyclo[2.2.1]heptan-1 yl)benzamide]
35 | 2.8 nM | O=C(N[C@H]1CCN(c2cccc(F)n2)C1)c1ccc(-c2nccc3occc23)cc1 [Example 226, (S)—N-[1-(6-fluoropyridin-2-yl)pyrrolidin-3-yl]-4-(furo[3,2-c]pyridin-4-yl)benzamide]
36 | 0.58 nM | O=C(NC1CCC1)c1ccc(-c2nccc3[nH]ccc23)cc1 [Example 13, N-cyclobutyl-4-(1H-pyrrolo[3,2-c]pyridin-4-yl)benzamide]
37 | 21 nM | O=C(NC1CCC1)c1ccc(-c2nccc3occc23)cc1 [Example 86, N-cyclobutyl-4-(furo[3,2-c]pyridin-4-yl)benzamide]
38 | 160 nM | CC(O)c1cnc(-c2ccc(C(=O)N[C@H]3CC[C@H](C(C)(C)O)CC3)cc2)c2ccoc12 (stereo partly drawn) [Example 141, 4-[7-(1-hydroxyethyl)furo[3,2-c]pyridin-4-yl]-N-[trans-4-(2-hydroxypropan-2-yl)cyclohexyl]benzamide]
39 | 1.1 nM | NC(=O)c1cnc(N2CCC(NC(=O)c3ccc(-c4nccc5occc45)cc3)CC2)nc1 [Example 174, 2-{4-[4-(furo[3,2-c]pyridin-4-yl)benzamide]piperidin-1-yl}pyrimidine-5-carboxamide]
40 | 1.9 nM | O=C(N[C@H]1CC[C@H](C(O)C(F)(F)F)CC1)c1ccc(-c2nccc3occc23)cc1 (stereo partly drawn) [Example 309, 4-(furo[3,2-c]pyridin-4-yl)-N-[trans-4-(2,2,2-trifluoro-1-hydroxyethyl)cyclohexyl]benzamide]
